The term Ki denotes a dissociation constant, usually derived from enzyme kinetics or from competition with a known ligand. By EC50 is commonly meant the concentration at which the effect is half-maximal.

Assay [1] addresses T1, CB1 (Rattus norvegicus, UniProt P20272). The assay can be described thus: CB1 receptor binding affinity (Ki). As to the method:
Some disclosed compounds were tested for CB1 and CB2 receptor binding affinity (Tables 1, 2, 3, 4, 5, 6). As used herein “binding affinity” is represented by the Ki value. The Ki value is the affinity constant and describes the affinity of the compound for the receptor. […] A detailed description of the methods used to test “binding affinity” of compounds is given in Makriyannis, et al., US 2007, 0135388 and in Papahatjis, et al. J. Med. Chem. (2007) 4048, the content of each of which is hereby incorporated by reference.

A further assay concerns the target CB2 receptor (UniProt P47936). In words: CB2 receptor binding affinity (Ki). The conditions noted are these: read-out: CB2 receptor Ki. As to the method: Some disclosed compounds were tested for CB1 and CB2 receptor binding affinity (Tables 1, 2, 3, 4, 5, 6). As used herein “binding affinity” is represented by the Ki value. The Ki value is the affinity constant and describes the affinity of the compound for the receptor. The lower the Ki value, the higher the affinity of the compound for the receptor. A detailed description of the methods used to test “binding affinity” of compounds is given in Makriyannis, et al., US 2007, 0135388 and in Papahatjis, et al. J. Med. Chem. (2007) 4048, the content of each of which is hereby incorporated by reference.

A further assay has as its target CB2 (Homo sapiens, UniProt P34972). In words: cyclic adenosine monophosphate (cAMP) assay at CB2. In kind it is cell-based. The conditions noted are these: for EC50: read-out: Functional Potency (EC50); for Emax: read-out: % Efficacy. As to the method: (§1) Functional characterization of some of the disclosed compounds was performed by using the cyclic adenosine monophosphate (cAMP) assay. The functional potency of the compound is represented by the EC50 value. The lower the EC50 value, the higher the functional potency. A detailed description of the cyclic adenosine monophosphate (cAMP) assay is given in Nikas et al. J. Med. Chem. (2010) 6996.

The target in assay [2] is T1, CB1. The assay can be described thus: cyclic adenosine monophosphate (cAMP) assay at CB1. The format is cell-based. The conditions noted are these: for EC50: read-out: Functional Potency (EC50); for Emax: read-out: % Efficacy. As to the method: as §1

Where two headings read alike, the source gives them in different places.

T1 sequence (P20272 whole entry): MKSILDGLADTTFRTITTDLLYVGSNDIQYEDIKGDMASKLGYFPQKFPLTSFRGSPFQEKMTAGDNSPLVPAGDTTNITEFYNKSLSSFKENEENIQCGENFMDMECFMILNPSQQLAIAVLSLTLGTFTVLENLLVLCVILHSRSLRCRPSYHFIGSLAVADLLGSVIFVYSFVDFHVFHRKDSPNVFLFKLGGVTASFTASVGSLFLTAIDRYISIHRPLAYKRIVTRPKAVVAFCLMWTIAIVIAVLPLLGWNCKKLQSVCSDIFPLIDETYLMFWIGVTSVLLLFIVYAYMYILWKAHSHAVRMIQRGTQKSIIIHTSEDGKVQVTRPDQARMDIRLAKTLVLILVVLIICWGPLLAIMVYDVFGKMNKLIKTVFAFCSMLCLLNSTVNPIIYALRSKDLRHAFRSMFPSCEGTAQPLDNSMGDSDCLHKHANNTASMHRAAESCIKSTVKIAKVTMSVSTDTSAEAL
Chain of CB2 (P34972 whole entry, species assumed): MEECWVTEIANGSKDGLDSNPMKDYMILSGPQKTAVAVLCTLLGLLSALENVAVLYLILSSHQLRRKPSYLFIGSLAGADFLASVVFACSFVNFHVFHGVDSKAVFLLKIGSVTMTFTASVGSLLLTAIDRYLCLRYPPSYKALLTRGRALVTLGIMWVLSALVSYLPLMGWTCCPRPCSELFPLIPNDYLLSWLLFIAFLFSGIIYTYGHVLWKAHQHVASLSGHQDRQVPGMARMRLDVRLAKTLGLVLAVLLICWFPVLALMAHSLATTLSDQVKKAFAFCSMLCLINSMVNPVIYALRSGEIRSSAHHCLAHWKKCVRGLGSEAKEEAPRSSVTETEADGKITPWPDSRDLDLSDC

With “2-[(1S,6S)-3-(Hydroxymethyl)-6-(1-methylethenyl)-2-cyclohexen-1-yl]-5-(6-morpholino-2-methylhexane-2-yl)-1,3-dimethoxy-benzene [Compound 74]”, the inhibitory constant (Ki) on CB1 [1] (read-out: CB1 receptor Ki) was determined as 0.07 µM. The Ki on CB2 receptor came out at 0.016 µM. For the same compound, on CB2, the “% Efficacy” value is given as 28%, the “Functional Activity” value is given as “Partial agonist at CB2” and the EC50 came to 0.0067 µM. For the same compound, at CB1 [2], the “% Efficacy” value is 51%, the “Functional Activity” value is reported as “Agonist at CB1” and the EC50 was found to be 0.0504 µM.
For the compound `CCCCCCC1(c2cc(O)c([C@H]3C=C(C)[C@H]4C[C@@H]3C4(C)C)c(O)c2)SCCS1` [Compound 40.6, (+)-2-[(1R,4S,5S)-2,6,6-trimethylbicylco[3.1.1]hept-2-en-4-yl]-5-(2-hexyl-1,3-dithiolane-2-yl)resorcinol], the Ki at CB1 [1] turned out to be 0.0192 µM. Besides, the Ki on CB2 receptor was found to be 0.0079 µM. Further, on CB2, the “Functional Activity” value was “Partial agonist at CB2”, the Emax amounted to 38% and the EC50 amounted to 0.0087 µM. Also, on CB1 [2], the “Functional Activity” value is “Partial agonist at CB1”, the Emax is 38% and the EC50 came out at 0.021 µM.
`C=C(C)[C@H]1CCC(CO)=C[C@@H]1c1c(O)cc(C2(CCCCCC)CC2)cc1O` [Compound 4.3, 2-[(1S,6S)-3-(Hydroxymethyl)-6-(1-methylethenyl)-2-cyclohexen-1-yl]-5-(1-hexyl-cyclopropyl)resorcinol] came in with a Ki at CB1 [1] of 0.016 µM. Besides, at CB2 receptor, the Ki came out at 0.014 µM. Also, on CB2, the “Functional Activity” value is “Partial agonist at CB2”, the Emax was determined as 35% and the EC50 stood at 0.012 µM. At CB1 [2], the “Functional Activity” value is recorded as “Agonist at CB1”, the Emax stood at 58% and the EC50 was 0.0016 µM.
Consider `C=C(C)[C@H]1CCC(COC(C)=O)=C[C@@H]1c1c(O)cc(C2(CCCCCC#N)CCC2)cc1O` [Compound 33, 2-[(1S,6S)-3-(Acetoxymethyl)-6-(1-methylethenyl)-2-cyclohexen-1-yl]-5-[(5-cyanopentyl)cyclobutyl)resorcinol], for which the results for the inhibition constant (Ki) at CB1 [1] and at CB2 receptor were 0.065 µM and 0.015 µM, respectively.
The corresponding values for `C=C(C)[C@H]1CCC(CO)=C[C@@H]1c1c(O)cc(C2(CCCCCBr)CCCC2)cc1O` [Compound 4.7, 2-[(1S,6S)-3-(Hydroxymethyl)-6-(1-methylethenyl)-2-cyclohexen-1-yl]-5-[(5-bromopentyl)cyclopentyl)resorcinol] are 0.016 µM and 0.005 µM.
Compound `C=C(C)[C@H]1CCC(CO)=C[C@@H]1c1c(O)cc(C2(CCCCCC)CCCC2)cc1O` [Compound 4.4, 2-[(1S,6S)-3-(Hydroxymethyl)-6-(1-methylethenyl)-2-cyclohexen-1-yl]-5-(1-hexyl-cyclopentyl)resorcinol] displayed a Ki on CB1 [1] of 0.078 µM. Also, the inhibition constant Ki on CB2 receptor was found to be 0.016 µM. Moreover, at CB1 [2], the “Functional Activity” value was “Agonist at CB1”, the Emax was found to be 81% and the EC50 was found to be 0.017 µM.
Take `C=C(C)[C@H]1CCC(=O)C[C@@H]1c1c(O)cc(C(C)(C)CCCCCC)cc1O` [Compound 66.2, (3S,4S)-3-[4-(1′,1′-Dimethylheptyl)-2,6-dihydroxyphenyl]-4-isopropenylcyclohexan-1-one]: the Ki was 0.03 to 0.06 µM on CB1 [1] and 0.041 µM at CB2 receptor.
The corresponding values for `C=C(C)[C@@H]1CCC(=COC)C[C@H]1c1c(O)cc(C23CC4CC(CC(C4)C2)C3)cc1O` [Compound 49.2, (3R,4R)-3-[4-(1-Adamantyl)-2,6-dihydroxyphenyl]-4-isopropenyl-1-(methoxymethylene)cyclohexane] are 1.76 µM and 0.375 µM.
Regarding `C=C(C)[C@@H]1CC[C@@H](CO)C[C@H]1c1c(O)cc(C23CC4CC(CC(C4)C2)C3)cc1O` [Compound 51.2, (1R,3R,4R)-3-[4-(1-Adamantyl)-2,6-dihydroxyphenyl]-4-isopropenyl-1-(hydroxymethyl)cyclohexane], the Ki worked out at 0.91 µM on CB1 [1] and 0.016 µM at CB2 receptor.
The matching figures for `CCCC/C=C\C1(c2cc(O)c([C@@H]3C=C(C)[C@@H]4C[C@H]3C4(C)C)c(O)c2)CCCC1` [Compound 43.5, (−)-2-[(1S,4R,5R)-2,6,6-trimethylbicyclo[3.1.1]hept-2-en-4-yl]-5-[1-(1,2-cis-hexen-1-yl)-cycolpentyl-1-yl]resorcinol]: 0.045 µM and 0.029 µM.
In the case of `CCCC/C=C\C1(c2cc(O)c([C@H]3C=C(C)[C@H]4C[C@@H]3C4(C)C)c(O)c2)CCCC1` [Compound 40.5, (+)-2-[(1R,4S,5S)-2,6,6-trimethylbicylco[3.1.1]hept-2-en-4-yl]-5-[1-(1,2-cis-hexen-1-yl)-cyclopent-1-yl]resorcinol], the inhibition constant (Ki) on CB1 [1] was found to be 0.0134 µM; at CB2 receptor, 0.0066 µM.
The matching figures for `C=C(C)[C@H]1CCC(COC(C)=O)=C[C@@H]1c1c(O)cc(C2(/C=C\CCCC)CCCC2)cc1O` [Compound 3.5, 2-[(1S,6S)-3-(Acetoxymethyl)-6-(1-methylethenyl)-2-cyclohexen-1-yl]-5-[1-(1,2-cis-hexen-1-yl)-cyclopent-1-yl]resorcinol]: 0.071 µM and 0.012 µM.
The compound `C=C(C)[C@H]1CCC(CO)=C[C@@H]1c1c(O)cc(C2(CCCCCC#N)CCC2)cc1O` [Compound 34, 2-[(1S,6S)-3-(Hydroxymethyl)-6-(1-methylethenyl)-2-cyclohexen-1-yl]-5-[(5-cyanopentyl)cyclobutyl]resorcinol] yielded a Ki at CB1 [1] of 0.02 µM. In addition, the inhibition constant (Ki) at CB2 receptor amounted to 0.0055 µM. Moreover, at CB1 [2], the “Functional Activity” value is “Agonist at CB1”, the Emax is 83% and the EC50 turned out to be 0.0032 µM.
For `C=C(C)[C@@H]1CC[C@@H](C(=O)O)C[C@H]1c1c(O)cc(C(C)(C)CCCCCC)cc1O` [Compound 58.2, (1R,3R,4R)-3-[4-(1′,1′-Dimethylheptyl)-2,6-dihydroxyphenyl]-4-isopropenyl-1-carboxylylcyclohexane], the Ki at CB1 [1] and at CB2 receptor was above 1 µM in each case.
Take `C=C(C)[C@H]1CCC(COC(C)=O)=C[C@@H]1c1c(O)cc(C2(/C=C\CCCC)CCOCC2)cc1O` [Compound 3.14, 2-[(1S,6S)-3-(Acetoxymethyl)-6-(1-methylethenyl)-2-cyclohexen-1-yl]-5-[1-(1,2-cis-hexen-1-yl)-tetrahydro-2H-pyran-4-yl]resorcinol]: the Ki on CB1 [1] stood at 0.376 µM; on CB2 receptor, 0.038 µM.
Regarding `C=C(C)[C@@H]1CC[C@@H](C(N)=O)C[C@H]1c1c(O)cc(C(C)(C)CCCCCC)cc1O` [Compound 59.1, (1R,3R,4R)-3-[4-(1′,1′-Dimethylheptyl)-2,6-dihydroxyphenyl]-4-isopropenyl-1-carboxamidocyclohexane], the Ki at CB1 [1] and on CB2 receptor was above 1 µM in each case.
Take `C=C(C)[C@H]1CCC(COC(C)=O)=C[C@@H]1c1c(O)cc(C2(CCCCCC)CCCC2)cc1O` [Compound 3.4, 2-[(1S,6S)-3-(Acetoxymethyl)-6-(1-methylethenyl)-2-cyclohexen-1-yl]-5-(1-hexyl-1-cyclopentyl)resorcinol]: the inhibitory constant (Ki) was determined as 0.277 µM at CB1 [1] and 0.065 µM on CB2 receptor.
On to `C=C(C)[C@H]1CCC(CO)=C[C@@H]1c1c(O)cc(C2(CCCCCC)SCCS2)cc1O` [Compound 4.6, 2-[(1S,6S)-3-(Hydroxymethyl)-6-(1-methylethenyl)-2-cyclohexen-1-yl]-5-(2-hexyl-1,3-dithiolane-2-yl)resorcinol], for which, on CB1 [1], the Ki worked out at 0.071 µM. Also, the Ki on CB2 receptor was 0.028 µM. At CB1 [2], the “Functional Activity” value is reported as “Agonist at CB1”, the Emax was 84% and the concentration giving a half-maximal response (EC50) amounted to 0.267 µM.
For `C=C(C)[C@H]1CCC(COC(C)=O)=C[C@@H]1c1c(O)cc(C23CC4CC(CC(C4)C2)C3)cc1O` [Compound 3.9, 2-[(1S,6S)-3-(Acetoxymethyl)-6-(1-methylethenyl)-2-cyclohexen-1-yl]-5-(1-adamantyl)resorcinol], the Ki at CB1 [1] was determined as 0.185 µM; at CB2 receptor it was 0.135 µM.
Turning to `C=C(C)[C@H]1CCC(COC(C)=O)=C[C@@H]1c1c(O)cc(C2(CCCCCC)SCCS2)cc1O` [Compound 3.6, 2-[(1S,6S)-3-(Acetoxymethyl)-6-(1-methylethenyl)-2-cyclohexen-1-yl]-5-(2-hexyl-1,3-dithiolane-2-yl)resorcinol], the Ki at CB1 [1] (read-out: CB1 receptor Ki) amounted to 0.326 µM; on CB2 receptor, 0.097 µM.
Regarding `C=C(C)[C@H]1CCC(CO)=C[C@@H]1c1c(O)cc(C23CC4CC(CC(C4)C2)C3)cc1O` [Compound 4.9, 2-[(1S,6S)-3-(Hydroxymethyl)-6-(1-methylethenyl)-2-cyclohexen-1-yl]-5-(1-adamantyl)resorcinol], the Ki on CB1 [1] came out at 0.449 µM; at CB2 receptor it was 0.049 µM.

The values above are taken from patent US9517989B2, “2-cycloalkyl resorcinol cannabinergic ligands” (priority 2012, dated 2016).
